Results: patent US20240228506A1, “RIPK1 INHIBITORS AND METHODS OF USE” (Merck Sharp & Dohme LLC, priority 2021, published 2024)

molecular target: T1, GST-RIPK1 (recombinant GST-RIPK1 kinase domain (residues 1-327)) (Homo sapiens, UniProt Q13546); assay: RIPK1-ADP-Glo enzymatic assay; assay type: biochemical; settings: 25 nM GST-RIPK1, 300 μM ATP, 3 μM dephosphorylated-MBP; 30 minutes pre-incubation, 150 minutes reaction; ten-point titration
T1 construct: recombinant GST-RIPK1 kinase domain (residues 1-327) enzyme; made in house; host or cells: baculovirus-transfected Sf21 insect cells
T1 sequence (Q13546 1-327): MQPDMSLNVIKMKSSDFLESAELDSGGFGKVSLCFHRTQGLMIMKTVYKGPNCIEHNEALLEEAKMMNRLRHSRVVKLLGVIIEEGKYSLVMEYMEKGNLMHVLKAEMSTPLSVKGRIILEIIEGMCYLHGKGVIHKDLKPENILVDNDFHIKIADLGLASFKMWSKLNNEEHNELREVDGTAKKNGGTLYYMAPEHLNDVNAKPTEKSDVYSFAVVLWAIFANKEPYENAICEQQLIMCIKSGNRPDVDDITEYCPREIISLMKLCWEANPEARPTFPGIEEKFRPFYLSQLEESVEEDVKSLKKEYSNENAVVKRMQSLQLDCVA
Protocol: The enzymatic activity of RIPK1 is measured using an assay derived from ADP-Glo kit (Promega™), which provides a luminescent-based ADP detection system. Specifically, the ADP generated by RIPK1 kinase is proportionally detected as luminescent signals in a homogenous fashion. In this context, the assessment of the inhibitory effect of small molecules (EC50) is measured by the effectiveness of the compounds to inhibit the ATP to ADP conversion by RIPK1. In this assay, the potency (EC50) of each compound was determined from a ten-point (1:3 serial dilution; top compound concentration of 100000 nM) titration curve using the following outlined procedure. To each well of a white ProxiPlus 384 well-plate, […] of compound (1% DMSO in final assay volume of 3 μL) was dispensed, followed by the addition of 2 μL of 1× assay buffer (25 mM Hepes 7.3, 20 mM MgCl2, 50 mM NaCl, 1 mM DTT, 0.005% Tween20, and 0.02% BSA) containing 37.5 nM of GST-RIPK1 (recombinant GST-RIPK1 kinase domain (residues 1-327) enzyme produced from baculovirus-transfected Sf21 cells: MW=62 kDa). Plates were placed in an ambient temperature humidified chamber for a 30 minutes pre-incubation with compound. Subsequently, each reaction was initiated by the addition of 1 μL 1×assay buffer containing 900 μM ATP and […]. The final reaction in each well of 3 μL consists of 25 nM of GST-RIPK1, 300 μM ATP, and 3 μM dephosphorylated-MBP. Kinase reactions were allowed to proceed for 150 minutes prior to adding ADP-Glo reagents per Promega's outlined kit protocol. Dose-response curves were generated by plotting percent effect (% product conversion; Y-axis) vs. Log10 compound concentrations (X-axis). EC50 values were calculated using a non-linear regression, four-parameters sigmoidal dose-response model.

IC50 [nM] | SMILES
252 | CCC(C)(C#N)C(=O)N1C[C@@H]2C[C@H]1c1cncc(C#N)c1O2 (single isomer, unassigned) [Compound 1-112, (2S,5S)-4-(2-(R or S)-cyano-2-methylbutanoyl)-2,3,4,5-tetrahydro-2,5-methanopyrido[3,4-f][1,4]oxazepine-9-carbonitrile]
156 | CCC(C)(C#N)C(=O)N1C[C@@H]2C[C@H]1c1cncc(C#N)c1O2 (single isomer, unassigned) [Compound 1-113, (2S,5S)-4-(2-(R or S)-cyano-2-methylbutanoyl)-2,3,4,5-tetrahydro-2,5-methanopyrido[3,4-f][1,4]oxazepine-9-carbonitrile]
90 | O=C(N1C[C@@H]2C[C@H]1c1cncc(F)c1O2)C12CCC(CC1(F)F)C2 (single isomer, unassigned) [Compound 2-18, (2,2-(S or R)-difluorobicyclo[2.2.1]heptan-1-yl)((28,5S)-9-fluoro-2,3-dihydro-2,5-methanopyrido[3,4-f][1,4]oxazepin-4(5H)-yl)methanone]
453 | O=C(N1C[C@@H]2C[C@H]1c1cncc(F)c1O2)C12CCC(CC1(F)F)C2 (single isomer, unassigned) [Compound 2-19, (2,2-(S or R)-difluorobicyclo[2.2.1]heptan-1-yl)((2S,5S)-9-fluoro-2,3-dihydro-2,5-methanopyrido[3,4-f][1,4]oxazepin-4(5H)-yl)methanone]
61 | CCC(C)(C#N)C(=O)N1C[C@@H]2C[C@H]1c1cncc(C#N)c1S2 (single isomer, unassigned) [Compound 4-9, (2S,5S)-4-(2-(R or S)-cyano-2-methylbutanoyl)-2,3,4,5-tetrahydro-2,5-methanopyrido[3,4-f][1,4]thiazepine-9-carbonitrile]
43 | CCC(C)(C#N)C(=O)N1C[C@@H]2C[C@H]1c1cncc(C#N)c1S2 (single isomer, unassigned) [Compound 4-10, (2S,5S)-4-(2-(R or S)-cyano-2-methylbutanoyl)-2,3,4,5-tetrahydro-2,5-methanopyrido[3,4-f][1,4]thiazepine-9-carbonitrile]
432 | C[C@@H]1C2CN(C(=O)C(C)(C)C(F)F)[C@H]1c1cncc(C#N)c1O2 (single isomer, unassigned) [Compound 5-3]
165 | C[C@@H]1C2CN(C(=O)C34CCC(C(F)(F)F)(CC3)C4)[C@H]1c1cncc(C#N)c1O2 (single isomer, unassigned) [Compound 5-4]
1360 | CC(C)(C(=O)N1C[C@H]2Cc3c(C#N)cncc3[C@@H]1C2)C(F)F (single isomer, unassigned) [Compound 5-5]
123 | N#Cc1cncc2c1C[C@H]1C[C@@H]2N(C(=O)C23CCC(C(F)(F)F)(CC2)C3)C1 (single isomer, unassigned) [Compound 5-6]

Continued, molecule first:

SMILES | IC50 [nM]
CC(C(=O)N1C[C@@H]2C[C@H]1c1cncc(C#N)c1O2)(C(F)F)C1CC1 (single isomer, unassigned) [Compound 1-89, (2S,5S)-4-(2-(R or S)-cyclopropyl-3,3-difluoro-2-methylpropanoyl)-2,3,4,5-tetrahydro-2,5-methanopyrido[3,4-f][1,4]oxazepine-9-carbonitrile] | 43
N#Cc1cncc2c1O[C@H]1C[C@@H]2N(C(=O)C2(F)CC(Oc3ccc(F)cc3F)C2)C1 (single isomer, unassigned) [Compound 1-106, (2S,5S)-4-(3-(2,4-difluorophenoxy)-1-(R or S)-fluorocyclobutane-1-carbonyl)-2,3,4,5-tetrahydro-2,5-methanopyrido[3,4-f][1,4]oxazepine-9-carbonitrile] | 60
N#Cc1cncc2c1O[C@H]1C[C@@H]2N(C(=O)C2(F)CC(Oc3ccc(F)cc3F)C2)C1 (single isomer, unassigned) [Compound 1-107, (2S,5S)-4-(3-(2,4-difluorophenoxy)-1-(R or S)-fluorocyclobutane-1-carbonyl)-2,3,4,5-tetrahydro-2,5-methanopyrido[3,4-f][1,4]oxazepine-9-carbonitrile] | 23
CC(C)(C(=O)N1C[C@@H]2C[C@H]1c1cncc(C#N)c1O2)C(F)F [Compound 1-1, (2S,5S)-4-(3,3-difluoro-2,2-dimethylpropanoyl)-2,3,4,5-tetrahydro-2,5-methanopyrido[3,4-f][1,4]oxazepine-9-carbonitrile] | 32
N#Cc1cncc2c1O[C@H]1C[C@@H]2N(C(=O)C23CCC(C(F)(F)F)(CC2)C3)C1 [Compound 1-2, (2S,5S)-4-[4-(trifluoromethyl)bicyclo[2.2.1]heptane-1-carbonyl]-2,3,4,5-tetrahydro-2,5-methanopyrido[3,4-f][1,4]oxazepine-9-carbonitrile] | 7
CC(C)(C)C(=O)N1C[C@@H]2C[C@H]1c1cncc(C#N)c1O2 [Compound 1-3, (2S,5S)-4-(2,2-dimethylpropanoyl)-2,3,4,5-tetrahydro-2,5-methanopyrido[3,4-f][1,4]oxazepine-9-carbonitrile] | 50
CCC(C)(C)C(=O)N1C[C@@H]2C[C@H]1c1cncc(C#N)c1O2 [Compound 1-4, (2S,5S)-4-(2,2-dimethylbutanoyl)-2,3,4,5-tetrahydro-2,5-methanopyrido[3,4-f][1,4]oxazepine-9-carbonitrile] | 13
CC1(C(=O)N2C[C@@H]3C[C@H]2c2cncc(C#N)c2O3)CCCC1 [Compound 1-5, (2S,5S)-4-(1-methylcyclopentane-1-carbonyl)-2,3,4,5-tetrahydro-2,5-methanopyrido[3,4-f][1,4]oxazepine-9-carbonitrile] | 22
N#Cc1cncc2c1O[C@H]1C[C@@H]2N(C(=O)C23CCC(CC2)C3)C1 [Compound 1-6, (2S,5S)-4-(bicyclo[2.2.1]heptane-1-carbonyl)-2,3,4,5-tetrahydro-2,5-methanopyrido[3,4-f][1,4]oxazepine-9-carbonitrile] | 11
N#Cc1cncc2c1O[C@H]1C[C@@H]2N(C(=O)C23CCC(F)(CC2)C3)C1 [Compound 1-7, (2S,5S)-4-(4-fluorobicyclo[2.2.1]heptane-1-carbonyl)-2,3,4,5-tetrahydro-2,5-methanopyrido[3,4-f][1,4]oxazepine-9-carbonitrile] | 18
CC(C)(C(=O)N1C[C@@H]2C[C@H]1c1cncc(C#N)c1O2)C1CC1 [Compound 1-8, (2S,5S)-4-(2-cyclopropyl-2-methylpropanoyl)-2,3,4,5-tetrahydro-2,5-methanopyrido[3,4-f][1,4]oxazepine-9-carbonitrile] | 29
CC(C)(C(=O)N1C[C@@H]2C[C@H]1c1cncc(C#N)c1O2)C(F)(F)F [Compound 1-9, (2S,5S)-4-(3,3,3-trifluoro-2,2-dimethylpropanoyl)-2,3,4,5-tetrahydro-2,5-methanopyrido[3,4-f][1,4]oxazepine-9-carbonitrile] | 20
CC(F)(F)C(C)(C)C(=O)N1C[C@@H]2C[C@H]1c1cncc(C#N)c1O2 [Compound 1-10, (2S,5S)-4-(3,3-difluoro-2,2-dimethylbutanoyl)-2,3,4,5-tetrahydro-2,5-methanopyrido[3,4-f][1,4]oxazepine-9-carbonitrile] | 21
N#Cc1cncc2c1O[C@H]1C[C@@H]2N(C(=O)C2(C(F)(F)F)CCC2)C1 [Compound 1-11, (2S,5S)-4-[1-(trifluoromethyl)cyclobutane-1-carbonyl]-2,3,4,5-tetrahydro-2,5-methanopyrido[3,4-f][1,4]oxazepine-9-carbonitrile] | 62
